The subject of one data set is hair cells. Kind of data set: High-throughput screen of FDA approved compound library for protection against aminoglycoside-induced hair cell death. The class given is in vivo, zebrafish. To be noted: library of 1040 FDA approved compounds, high-throughput assay. The method, then: (§1) Zebrafish eggs of the AB/Wik wild-type strain were generated and maintained until 5 days post-fertilization temporally corresponding to the developmental maturation of the lateral line hair cells. 5 day postfertilization larvae were prelabeled with the fluorescent dyes FM 1-43, 3 μM (30 sec), and Yo-Pro-1, 2 μM (30 min) to identify the hair cells. Larvae were arrayed into 96 well plates containing embryo media. Synthetic small molecules from the Chembridge Corporation, San Diego, were transferred into the wells for a final concentration of 10 μM (0.05% DMSO). Following a one hour exposure to the compounds fish were treated with neomycin for an additional hour. Larvae were then analyzed in vivo with an epifluorescent Zeiss Axiovert 200M microscope with automated stage and a 40× objective to determine hair cell viability following neomycin exposure.
A library of 1040 FDA approved compounds (NINDS Custom Collection II, Microsource, Inc.) were screened using a high-throughput assay.

Data set [1] concerns lateral line hair cells of zebrafish. Put plainly: Protection against cisplatin-induced lateral line hair cell death. To be noted: for protective against toxic effects of cisplatin on hair cells (identified by screening): exemplified platinum coordination complex (cisplatin). The class given is in vivo, zebrafish (Danio rerio). The method, then:
(§2) Larvae were placed in a transfer device fashioned from a 50 ml conical tube with one end cut off and a mesh cover at the bottom. FM 1-43 (n-(3-triethylammoniumpropyl)-4-(4-dibutylamino]-styryl)pyridinium dibromide; Molecular Probes, Eugene, Oreg.) labeling of lateral line neuromasts was achieved by immersing free swimming larvae in 3 μM FM 1-43 in embryo medium for 30 seconds followed by 3 rinses in embryo medium. Using this procedure FM 1-43 is restricted to hair cells in neuromasts (Seiler and Nicolson, J Neurobiol (1999) 41:424-34). Yo-Pro-1 (Molecular Probes, Eugene, Oreg.) labeling of hair cell nuclei in lateral line neuromasts was achieved using a similar technique, incubating larvae in 2 μM Yo-Pro-1 in embryo medium for 30 minutes followed by 3 rinses. Using this procedure only the nuclei of hair cells are labeled.
Cisplatin from a 200 mM stock solution in DMSO (Sigma) was diluted in embryo medium to final concentrations of 300 μM, 500 μM, and 1 mM (0.05% DMSO) in each well of a six-well culture plate. Following vital dye staining live free-swimming five dpf larvae were transferred from control (neomycin-free) embryo medium to cisplatin-containing medium and incubated for 3 h.
To determine if compound F5 is protective against the otoxic effects of cisplatin, larvae were pretreated with compound F5 10 μm for 1 hour, exposed the larvae to 0, 300 μM, 500 μM and 1 mM of cisplatin for 3 hours, counted hair cells and compared to untreated controls.

Data set [2] shares this test system. Kind of data set: Protection of zebrafish lateral line hair cells against neomycin-induced hair cell death. The settings on record: for protective against toxic effects of neomycin on hair cells (identified by screening): exemplified aminoglycoside (neomycin); for protection of hair cells from neomycin induced hair cell death in the small molecule screen: 5 dpf larvae, pretreated with compound at 10 μm, exposed to neomycin, hair cells evaluated after 1 hour; for long lasting protection, hair cell counts (FM 1-43) after neomycin: 200 μm neomycin, 24 hours post treatment; for protective effect against neomycin (dose finding): pretreated at 0-200 μM compound, neomycin 200 μM, compared to controls. Type of data set: in vivo, zebrafish (Danio rerio). More on the design: protection of hair cells from neomycin induced hair cell death in the small molecule screen: dose or concentration left out as unconfirmed. The method, then: Zebrafish embryos were produced by paired matings of adult fish maintained at 28.5° C. in the University of Washington zebrafish facility. Beginning at 4 days post fertilization (dpf), larvae were fed live paramecia. Larvae were maintained at a density of 50 per 100 mm^2 petri dish in embryo medium (1 mM MgSO4, 120 μM KH2PO4, 74 μM Na2HPO4, 1 mM CaCl2, 500 μM KCl, […], and 500 μM NaHCO3 in dH2O) in a tissue incubator at 28.5° C. All animal procedures were approved by the University of Washington institutional Animal Care and Use Committee,
as §2, §1
Neomycin sulfate from a 50 mM stock solution in dH2O (Sigma) was diluted in embryo medium to final concentrations of 25 μM, 50 μM, 100 μM, 200 μM and 400 μM in each well of a six-well culture plate. Following vital dye staining live free-swimming five dpf larvae were transferred from control (neomycin-free) embryo medium to neomycin-containing medium and incubated for 1 h. For time-lapse imaging, neomycin-containing medium was added directly to the imaging chamber.
In order to identify compounds that protect hair cells of the lateral line from the toxic effects of the aminoglycoside neomycin, 10,960 small molecules were screened. 5 dpf larvae were double labeled with the fluorescent dyes FM 1-43 and Yo-Pro-1, pretreated with the compounds at a dose of 10 μm, exposed to […], and their hair cells evaluated after 1 hour, FIG. 1.
To identify the optimal dose for evaluating the compounds' protective effects, larvae were pretreated with both compounds at 0, 1, 10, 50, 100 and 200 μM, and exposed to neomycin at 200 μM and compared to controls.
The neomycin susceptibility of larvae pretreated with 10 μM of compound F5 and controls at 0, 25, 100, 200 and 400 μm neomycin were compared.
To evaluate the protection conferred by compounds F5 and H10, hair cell counts were compared using the fluorescent dye FM 1-43 to identify hair cells in larvae pretreated with compound and controls, exposed to 200 μm neomycin after 24 hours, 48 hours and 72 hours. […] At 48 hours and beyond the protective effects of compound F5 and H10 cannot be determined as the larvae have repopulated the neuromasts with regenerated hair cells, FIG. 5.

Data set [3] deals with zebrafish lateral line hair cells. Kind of data set: Neomycin-induced hair cell death of zebrafish lateral line hair cells. Type of data set: in vivo. The settings on record: 5 dpf larvae, 1 hour exposure to 200 μM, FM 1-43 and Yo-Pro-1 labeling. How it is done: FIGS. 1A and 1B illustrate labeling and neomycin-induced hair cell death of zebrafish lateral line hair cells. FIG. 1A depicts 5 days post fertilization (dpf) larvae hair cells labeled with FM 1-43 (red) to identify the cytoplasm of hair cells and Yo-Pro-1 (green) labeling the nucleus. […] Cytoplasmic (red) and nuclear fragments (green) are visible in FIG. 1B.
as §2
Neomycin sulfate from a 50 mM stock solution in dH2O (Sigma) was diluted in embryo medium to final concentrations of 25 μM, 50 μM, 100 μM, 200 μM and 400 μM in each well of a six-well culture plate. […]

In the next data set the test system is lateral line hair cells. Put plainly: Mechanotransduction-dependent activity of lateral line hair cells measured by FM 1-43 uptake. To be noted: pretreated 1 hour at 10 μm, FM 1-43 3 μM for 30 seconds. Type of data set: in vivo, zebrafish. The method, then:
To test whether compounds F5 and H10 inhibit mechanotransduction-dependent activity of lateral line hair cells, larvae were incubated in the dye FM1-43. Larvae were pretreated with each compound for 1 hour at 10 μm and exposed to FM 1-43, 3 μM, for 30 seconds. […] Neither compound F5 nor compound H10 inhibited the uptake of FM1-43, FIG. 7.

Entries after “also recorded” stand apart in the source; their conditions may differ.

Take `NC(N)=NC(=O)c1nc(Cl)c(N2CCCCCC2)nc1N` [N,N-hexamethyleneamiloride]: the “protection against aminoglycoside-induced hair cell death (screen hit)” value (“protection … (screen hit)” below) in the data set with hair cells is “protect against aminoglycoside-induced hair cell death”.

For `NC(=O)c1c(NC(=O)Nc2ccc(Cl)cc2)sc2c1CCCC2` [Compound B, 2-({[(4-chlorophenyl)amino]carbonyl}amino)-4,5,6,7-tetrahydro-1-benzothiophene-3-carboxamide], in data set [1], the “protective against toxic effects of cisplatin on hair cells (identified by screening)” value was “protective”. The “protective against toxic effects of neomycin on hair cells (identified by screening)” value in data set [2] is “protective”.

As to neomycin, in data set [3], the “hair cell death after neomycin exposure” value is on record as “undergo apoptotic death”.

Take `COc1ccccc1OCCNCC(O)COc1cccc2[nH]c3ccccc3c12` (centres unmarked) [Carvedilol]: in the data set with hair cells, the “protection … (screen hit)” value was “protect against aminoglycoside-induced hair cell death”.

Turning to `CCN(CC)CCOC(=O)C(c1ccccc1)C1CCCCC1` (centres unmarked) [Drofenine], the “protection … (screen hit)” value in the data set with hair cells is reported as “protect against aminoglycoside-induced hair cell death”.

Take `NC(=O)c1c(NC(=O)c2ccc(Cl)c([N+](=O)[O-])c2)sc2c1CCCC2` [Compound C, 2-[(4-chloro-3-nitrobenzoyl)amino]-4,5,6,7-tetrahydro-1-benzothiophene-3-carboxamide]: the “protective against toxic effects of cisplatin on hair cells (identified by screening)” value in data set [1] is recorded as “protective”. Further, the “protective against toxic effects of neomycin on hair cells (identified by screening)” value in data set [2] was “protective”.

`CC(COc1ccccc1)N(CCCl)Cc1ccccc1` (centres unmarked) [Phenoxybenzamine]: the “protection … (screen hit)” value in the data set on hair cells is listed as “protect against aminoglycoside-induced hair cell death”.

In the case of `CCN1CCc2c(sc(NC(=O)Nc3ccc(Cl)cc3)c2C(N)=O)C1` [Compound F5, 2-({[(4-chlorophenyl)amino]carbonyl}amino)-6-ethyl-4,5,6,7-tetrahydrothieno[2,3-c]pyridine-3-carboxamide], the “protective against toxic effects of cisplatin on hair cells (identified by screening)” value in data set [1] is listed as “protective”. The “protection against cisplatin induced hair cell death (hair cell counts)” value in data set [1] (pretreated 10 μm for 1 hour, 0, 300 μM, 500 μM and 1 mM cisplatin for 3 hours) is recorded as “significant protection against cisplatin induced hair cell death; also recorded: protective against cisplatin-induced lateral Sine hair cell death”. In addition, in the data set with lateral line hair cells, the “inhibition of FM 1-43 uptake (mechanotransduction-dependent activity)” value is reported as “do not inhibit mechanotransduction-dependent activity; also recorded: do not prevent the rapid uptake of FM1-43”. Further, the “neomycin susceptibility of pretreated larvae versus controls” value in data set [2] (10 μM compound pretreatment, 0, 25, 100, 200 and 400 μm neomycin) was “less susceptible to neomycin than controls; also recorded: protects lateral line hair cells against neomycin”. In data set [2], the “protection of hair cells from neomycin induced hair cell death in the small molecule screen” value is “protect hair cells from neomycin induced hair cell death”; the “long lasting protection, hair cell counts (FM 1-43) after neomycin” value was “Significant protection; also recorded: protective through 24 hours post neomycin treatment”; the “protective against toxic effects of neomycin on hair cells (identified by screening)” value was “protective”; the “protective effect against neomycin (dose finding)” value is on record as “protective against neomycin”.

Consider `Nc1c2c(nc3ccccc13)CCCC2` [9-amino-1,2,3,4-tetrahydroacridine], for which the “protection … (screen hit)” value in the data set on hair cells is “protect against aminoglycoside-induced hair cell death”.

Consider `NC(=O)c1c(NC(=O)CN2CCCCC2)sc2c1CCCC2` [Compound D, 2-[(1-piperidinylacetyl)amino]-4,5,6,7-tetrahydro-1-benzothiophene-3-carboxamide], for which, in data set [1], the “protective against toxic effects of cisplatin on hair cells (identified by screening)” value is on record as “protective”. In addition, the “protective against toxic effects of neomycin on hair cells (identified by screening)” value in data set [2] is reported as “protective”.

Consider `Cc1cccc(C(=O)NC(NC(=S)Nc2sc3c(c2C(N)=O)CCCC3)C(Cl)(Cl)Cl)c1` (centres unmarked) [Compound A, 2-{{({2,2,2-trichloro-1-[(3-methylbenzoyl)amino]ethyl}amino)carbonothioyl]amino}-4,5,6,7-tetrahydro-1-benzothiophene-3-carboxamide], for which the “protective against toxic effects of cisplatin on hair cells (identified by screening)” value in data set [1] is recorded as “protective”. For the same compound, the “protective against toxic effects of neomycin on hair cells (identified by screening)” value in data set [2] was “protective”.

For `COc1ccc(C(=O)NC(NC(=S)Nc2sc3c(c2C(N)=O)CCCC3)C(Cl)(Cl)Cl)cc1` (centres unmarked) [Compound H10, 2-{[({2,2,2-trichloro-1-[(4-methoxybenzoyl)amino]ethyl}amino)carbonothioyl]amino}-4,5,6,7-tetrahydro-1-benzothiophene-3-carboxamide], the “protective against toxic effects of cisplatin on hair cells (identified by screening)” value in data set [1] is recorded as “protective”. In addition, the “inhibition of FM 1-43 uptake (mechanotransduction-dependent activity)” value in the data set on lateral line hair cells was “do not inhibit mechanotransduction-dependent activity; also recorded: do not prevent the rapid uptake of FM1-43”. Further, in data set [2], the “protection of hair cells from neomycin induced hair cell death in the small molecule screen” value is “protect hair cells from neomycin induced hair cell death”; the “long lasting protection, hair cell counts (FM 1-43) after neomycin” value is on record as “Significant protection; also recorded: protective through 24 hours post neomycin treatment”; the “protective against toxic effects of neomycin on hair cells (identified by screening)” value is given as “protective”; the “protective effect against neomycin (dose finding)” value is given as “protective against neomycin”. The “optimal protective dose against 200 μM neomycin” value in data set [2] (larvae pretreated at 0, 1, 10, 50, 100 and 200 μM compound, 200 μM neomycin) was 1 µM.

(Values after patent US8232314B2, “Compounds that protect against sensory hair cell death” (University of Washington, priority 2005, dated 2012).)
